38 compounds from ChEMBL document CHEMBL1136731, “Synthesis and biological evaluation of non-peptidic cyclophilin ligands” (J Med Chem, 2003) can be followed below.

SMILES strings stand for the structures. pIC50: −log10 of the molar value.

Peptidyl-prolyl cis-trans isomerase A (Rattus norvegicus), sequence (P10111 whole entry): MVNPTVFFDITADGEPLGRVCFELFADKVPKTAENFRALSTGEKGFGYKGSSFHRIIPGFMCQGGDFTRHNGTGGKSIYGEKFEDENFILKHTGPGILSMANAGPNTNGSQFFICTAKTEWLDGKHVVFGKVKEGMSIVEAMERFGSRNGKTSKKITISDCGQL
Peptidyl-prolyl cis-trans isomerase A, sequence (P10111 whole entry): as above

The first assay has as its target Peptidyl-prolyl cis-trans isomerase A (Rattus norvegicus) (UniProt P10111). Nature of the assay: In vitro inhibition of the rotamase activity of cyclophilin A (CyPA) […].
As usually defined, the inhibition is how much of the control response was suppressed. Higher therefore signals a strong effect. `O=C(Nc1cccc(NC(=O)Nc2ccccn2)c1)Nc1ccccn1` yielded an inhibition of 0%.
Same read-out and setting: then `O=C(Nc1cccc(NC(=O)Nc2ccc(Br)cc2Br)c1)Nc1ccc(Br)cc1Br`, with 100%; and `O=C(Cc1ccccc1)Nc1cccc(NC(=O)c2cc(Cl)cc(Cl)c2)c1`, with 44%; and `CC(C)(C)NC(=O)NC1CCCC(NC(=O)NC(C)(C)C)C1` (stereo not drawn), with 7%.
`O=C(Nc1ccc(Cl)cc1)NC1CCCC(NC(=O)Nc2ccc(Cl)cc2)C1` (stereo not drawn) came in with an inhibition of 32%.
Still for that read-out and setting: then `N#Cc1cccc(NC(=O)Nc2cccc(NC(=O)Nc3cccc(C#N)c3)c2)c1`, with 38%.
Same read-out and setting: then `O=C(NCC(c1ccccc1)c1ccccc1)Nc1cccc(NC(=O)NCC(c2ccccc2)c2ccccc2)c1`, with 100%.
Compound `N#Cc1cccc(NC(=O)NC2CCCC(NC(=O)Nc3cccc(C#N)c3)C2)c1` (stereo not drawn) yielded an inhibition of 22%.
The same measure, in the same setting: then `O=C(Nc1ccc(Br)cc1Br)NC1CCCC(NC(=O)Nc2ccc(Br)cc2Br)C1` (stereo not drawn), with 100%; and `O=C(Nc1cccc2ccccc12)NC1CCCC(NC(=O)Nc2cccc3ccccc23)C1` (stereo not drawn), with 100%; and `O=C(NC1CCCC(NC(=O)NC23CC4CC(CC(C4)C2)C3)C1)NC12CC3CC(CC(C3)C1)C2` (stereo not drawn), with 28%.
Same read-out and setting: then `O=C(Nc1ccc(I)cc1)Nc1cc(NC(=O)Nc2ccc(I)cc2)c(Br)cc1Br`, with 100%; and `O=C(Nc1cc(Cl)cc(Cl)c1)NC1CCCC(NC(=O)Nc2cc(Cl)cc(Cl)c2)C1` (stereo not drawn), with 100%; and `O=C(NCc1cccc2ccccc12)Nc1cccc(NC(=O)NCc2cccc3ccccc23)c1`, with 100%.
With `O=C(NCc1ccccc1)NC1CCCC(NC(=O)NCc2ccccc2)C1` (stereo not drawn), the inhibition turned out to be 11%.
On the same count and under the same terms, then `COc1cccc(NC(=O)NC2CCCC(NC(=O)Nc3cccc(OC)c3)C2)c1` (stereo not drawn), with 100%.
Still for that read-out and setting: then `O=C(Nc1cc(Cl)cc(Cl)c1)Nc1cccc(NC(=O)Nc2cc(Cl)cc(Cl)c2)c1`, with 100%; and `O=C(Nc1cccc(NC(=O)c2cccnc2)c1)c1cccnc1`, with 6%.
The same measure, in the same setting: then `O=C(Nc1cccc(NC(=O)Nc2ccon2)c1)Nc1ccon1`, with 93%; and `CN(C)c1ccc(NC(=O)Nc2cc(NC(=O)Nc3ccc(N(C)C)cc3)c(Br)cc2Br)cc1`, with 98%; and `O=C(NCc1ccccc1)Nc1cccc(NC(=O)NCc2ccccc2)c1`, with 19%.
As to `COc1cccc(NC(=O)Nc2cccc(NC(=O)Nc3cccc(OC)c3)c2)c1`, the inhibition amounted to 8%.
Same read-out and setting: then `CCCCNC(=O)Nc1cccc(NC(=O)NCCCC)c1`, with 23%.
In the case of `Cc1ccc(NC(=O)NC2CCCC(NC(=O)Nc3ccc(C)cc3C)C2)c(C)c1` (stereo not drawn), the inhibition was 40%.
The same measure, in the same setting: then `Cc1ccc(NC(=O)Nc2cccc(NC(=O)Nc3ccc(C)cc3C)c2)c(C)c1`, with 100%; and `O=C(NC1CCCCC1)NC1CCCC(NC(=O)NC2CCCCC2)C1` (stereo not drawn), with 24%.

Another assay concerns the target Peptidyl-prolyl cis-trans isomerase A (Rattus norvegicus, UniProt P10111). Description: In vitro inhibition of the rotamase activity of cyclophilin A (CyPA).
As usually defined, the pIC50 is the negative decadic logarithm of the IC50, by convention in mol/L. Lower therefore signals a high IC50. Compound `O=C(Nc1ccc(C(F)(F)F)cc1)Nc1cccc(NC(=O)c2cc(Cl)cc(Cl)c2)c1` had a pIC50 of 6.03.
Still for that read-out and setting: then `O=C(Nc1cccc(NC(=O)c2cc(Cl)cc(Cl)c2)c1)Nc1ccc(Br)cc1Br`, with 6.21; and `O=C(Nc1ccccc1)Nc1cccc(NC(=O)c2cc(Cl)cc(Cl)c2)c1`, with 5.93.
Still for that read-out and setting: then `O=C(Nc1cccc2ccccc12)NC1CCCC(NC(=O)Nc2cccc3ccccc23)C1` (stereo not drawn), with 5.34.
The same measure, in the same setting: then `O=C(Nc1ccc(I)cc1)Nc1cc(NC(=O)Nc2ccc(I)cc2)c(Br)cc1Br`, with 6.23; and `O=C(NCc1ccccc1)Nc1cccc(NC(=O)c2cc(Cl)cc(Cl)c2)c1`, with 5.47.
As for `CCc1ccccc1NC(=O)Nc1cccc(NC(=O)c2cc(Cl)cc(Cl)c2)c1`, the pIC50 was 5.85.
On the same count and under the same terms, then `COc1cccc(NC(=O)NC2CCCC(NC(=O)Nc3cccc(OC)c3)C2)c1` (stereo not drawn), with 5.02; and `O=C(Cc1cccc2ccccc12)Nc1cccc(NC(=O)c2cc(Cl)cc(Cl)c2)c1`, with 5.95.
Same read-out and setting: then `O=C(Cc1ccc2ccccc2c1)Nc1cccc(NC(=O)c2cc(Cl)cc(Cl)c2)c1`, with 6.06.
On the same count and under the same terms, then `O=C(CC(c1ccccc1)c1ccccc1)Nc1cccc(NC(=O)c2cc(Cl)cc(Cl)c2)c1`, with 6.06.
In turn, `O=C(Nc1cccc(NC(=O)Nc2ccon2)c1)Nc1ccon1` had a negative logarithm of the IC50 (pIC50) of 5.40. This pIC50 lies 0.66 log units lower than the previous one.
On the same count and under the same terms, then `CN(C)c1ccc(NC(=O)Nc2cc(NC(=O)Nc3ccc(N(C)C)cc3)c(Br)cc2Br)cc1`, with 5.54.
Compound `Cc1ccccc1CNC(=O)Nc1cccc(NC(=O)c2cc(Cl)cc(Cl)c2)c1` gave a pIC50 of 5.67.
`O=C(Nc1cccc(NC(=O)c2cc(Cl)cc(Cl)c2)c1)c1cc(Cl)cc(Cl)c1`: the pIC50 is 6.03. Against the preceding compound, the pIC50 is 0.36 log units higher.
With `O=C(Nc1cc(Cl)cc(Cl)c1)Nc1cccc(NC(=O)c2cc(Cl)cc(Cl)c2)c1`, the pIC50 is 6.16.
`S=C(Nc1cc(Cl)cc(Cl)c1)Nc1cccc(NC(=S)Nc2cc(Cl)cc(Cl)c2)c1` showed a pIC50 of 6.32.
